Results as given in patent US20100221763A1, “Specific Acceptors for Transferases to Saccharides and Method for Obtaining and Using Same” (Health Research, Inc, priority 2005, published 2010).
Blank lines part the entries; values can stand above or below the compound they belong to.

Experiments:
[1] = system: α1,4-L-FT of colon tumor CC9338; assay: α1,4-L-FT assay, colon tumor extract; type: biochemical, human; details: 1 mg protein of the tissue extract
Protocol: (§1) Colon tumor tissue (CC9338) and breast tumor tissue (BC9400) were obtained during surgical procedures at Roswell Park Cancer Institute and stored frozen within 1 h at −70° C. The tissues were homogenized at 4° C. with 4 volumes of 0.1M Tris Maleate […] 0.1% NaN3 using kinematica. After adjusting the concentration of Triton X-100 to 2%, these homogenates were mixed in the cold room for 1 h using Speci-Mix (Thermolyne) and then centrifuged at 20,000 g for 1 h at 4° C. The clear fat-free supernatant was stored frozen at −20° C. until use. Aliquots of 10 μL from this extract were used in assays run in duplicates. Glycosyltransferase activity in cell lysate was determined by mixing the lysates with acceptor and radiolabeled donor (monosaccharide) under the reaction conditions detailed below, followed by separation of un-reacted donor from the radioactive product using anionic or hydrophobic chromatography. In all cases, the radioactive content of isolated products was determined by using 3a70 scintillation cocktail (Research Products International, Mount Prospect, Ill.) and a Beckman LS6500 scintillation counter. Controls for each assay contained the reaction mixture with everything except the acceptor. All assays were run in duplicate. […]

[2] = system: α1,4-L-FT of breast tumor BC9400; assay: α1,4-L-FT assay, breast tumor extract; type: biochemical, human; details: 1 mg protein of the tissue extract
Protocol: as §1

[3] = system: α1,3-L-FT of colon tumor CC9338; assay: α1,3-L-FT assay, colon tumor extract; type: biochemical, human; details: 1 mg protein of the tissue extract
Protocol: as §1

[4] = system: α1,3-L-FT of breast tumor BC9400; assay: α1,3-L-FT assay, breast tumor extract; type: biochemical, human; details: 1 mg protein of the tissue extract
Protocol: as §1

[5] = system: α1,2-L-FT of colon tumor CC9338; assay: α1,2-L-FT assay, colon tumor extract; type: biochemical, human; details: 1 mg protein of the tissue extract
Protocol: (§2) Colon tumor tissue (CC9338) and breast tumor tissue (BC9400) were obtained during surgical procedures at Roswell Park Cancer Institute and stored frozen within 1 h at −70° C. The tissues were homogenized at 4° C. with 4 volumes of 0.1M Tris Maleate […] 0.1% NaN3 using kinematica. After adjusting the concentration of Triton X-100 to 2%, these homogenates were mixed in the cold room for 1 h using Speci-Mix (Thermolyne) and then centrifuged at 20,000 g for 1 h at 4° C. The clear fat-free supernatant was stored frozen at −20° C. until use. Aliquots of 10 μL from this extract were used in assays run in duplicates. Glycosyltransferase activity in cell lysate was determined by mixing the lysates with acceptor and radiolabeled donor (monosaccharide) under the reaction conditions detailed below, followed by separation of un-reacted donor from the radioactive product using anionic or hydrophobic chromatography. In all cases, the radioactive content of isolated products was determined by using 3a70 scintillation cocktail (Research Products International, Mount Prospect, Ill.) and a Beckman LS6500 scintillation counter. Controls for each assay contained the reaction mixture with everything except the acceptor. All assays were run in duplicate.
(§3) α1,2, α1,6-, α1,3- and α1,4-fucosyltransferase (FT) assay reactions were carried out for 2 h in a reaction mixture containing 50 mM Hepes buffer (pH 7.5), 5 mM MnCl2, 7 mM ATP, 3 mM NaN3, 3 mM synthetic acceptor or 40 μg of fetuin-based acceptor, 0.05 μCi GDP-[14C]Fuc (290 mCi/mmol) and 10 μl cell extract in a total volume of 20 μl [Chandrasekaran et al., 1996]. Sulfotransferase (Sulfo T) assay reactions took 2 h and required a mixture containing 100 mM Tris-maleate (pH 7.2), 5 mM Mg Acetate, 5 mM ATP, 10 mM NaF, 10 mM BAL, 7.5 mM acceptor, 0.5 μCi of [^35S]PAPS (specific activity 2.4 Ci/mmol) and 10 μl of cell extract in a total volume of 30 μl [Chandrasekaran et al., 2004].
(§4) Dowex-1-C1 or Sep-Pak C18 cartridges were used to isolate radiolabeled product from the reaction mixture. For GalT, GalNAc-T and FT assays, the incubation mixture was diluted with 1 ml water and passed through a 1 ml Dowex-1-C1 column [Chandrasekaran et al., 1996; Chandrasekaran et al., 2001]. The column was washed twice with 1 ml of water. The breakthrough and the water wash contained the [^14C]-galactosylated or [^14C]-fucosylated products formed with neutral acceptors. 3 ml of 0.1M NaCl was used to obtain [^14C]-fucosylated products from sialylated acceptors after water elution. For sialytransferase assays, the radioactive products from benzylglycosides were separated by hydrophobic chromatography on Sep-Pak C18 cartridge (Waters, Milford, Mass.), and elution of the product was done with 3 ml methanol [Palcic et al., 1988]. […]

[6] = system: α1,2-L-FT of breast tumor BC9400; assay: α1,2-L-FT assay, breast tumor extract; type: biochemical, human; details: 1 mg protein of the tissue extract
Protocol: as §2, §3, §4

[7] = biological target: T1, Rat recombinant α2,3(O)ST (Rattus norvegicus, UniProt Q11205); assay: Sialyltransferase assay with cloned α2,3(O)ST; type: biochemical; details: for acceptor efficiency for cloned α2,3(O)ST (FIG. 6C): compared to Galβ1,3GalNAcβ1,3Galα-O-Me
T1 construct: purchased Calbiochem
T1 sequence (Q11205 1-350): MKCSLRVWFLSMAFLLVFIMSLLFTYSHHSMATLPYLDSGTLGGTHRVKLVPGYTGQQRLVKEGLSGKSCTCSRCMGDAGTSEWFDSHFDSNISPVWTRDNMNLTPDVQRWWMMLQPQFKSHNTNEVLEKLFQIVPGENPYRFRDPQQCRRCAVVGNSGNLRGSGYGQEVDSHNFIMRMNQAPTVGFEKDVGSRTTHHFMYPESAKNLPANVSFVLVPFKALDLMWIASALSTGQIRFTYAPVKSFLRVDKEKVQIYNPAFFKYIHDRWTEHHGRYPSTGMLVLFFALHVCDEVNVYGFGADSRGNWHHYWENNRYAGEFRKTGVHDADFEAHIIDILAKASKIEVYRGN

Structure (SMILES): CO[C@H]1[C@H](O[C@H]2[C@H](O)[C@@H](CO)OC(O)[C@@H]2NC(C)=O)O[C@H](CO)[C@H](O)[C@@H]1O (stereo partly shown) [2-O-MeGalβ1,3GlcNAc]
α1,4-L-FT activity: incorporation of radioactive sugar [1]: 727.5 CPM × 10^−3
α1,4-L-FT activity: incorporation of radioactive sugar [2]: 4.6 CPM × 10^−3

Structure (SMILES): CO[C@H]1[C@H](O[C@H]2[C@H](O)[C@@H](NC(C)=O)C(O)O[C@@H]2CO)O[C@H](CO)[C@H](O)[C@@H]1O (stereo partly shown) [2-O-MeGalβ1,4GlcNAc]
α1,3-L-FT activity: incorporation of radioactive sugar [3]: 540.9 CPM × 10^−3
α1,3-L-FT activity: incorporation of radioactive sugar [4]: 30.5 CPM × 10^−3

acceptor efficiency for cloned α2,3(O)ST (FIG. 6C) ([7]; 0.15 mM): about 50%
acceptor efficiency for cloned α2,3(O)ST (FIG. 6C) ([7]; 0.75 mM): ~100%
Sialyltransferase activity (%) Cloned α2,3(O)ST ([7]; Table I, acceptor 7.5 mM, 100% = 40560 CPM (3-O-MeGalβ1,4GlcNAcβ1,6(Galβ1,3)GalNAcα-O-Bn), listed as D-Fucβ1,3GalNAcβ1,3-Gal-O-Me): 115.6%
Structure (SMILES): CO[C@H]1O[C@H](CO)[C@H](O)[C@H](O[C@@H]2O[C@H](CO)[C@H](O)[C@H](O[C@@H]3O[C@H](C)[C@H](O)[C@H](O)[C@H]3O)[C@H]2NC(C)=O)[C@H]1O [D-Fucβ1,3GalNAcβ1,3Galα-O-Me]
α1,2-L-FT activity: incorporation of radioactive sugar [5]: 89.8 CPM × 10^−3
α1,2-L-FT activity: incorporation of radioactive sugar [6]: 16.2 CPM × 10^−3

Structure (SMILES): C=CCO[C@H]1O[C@H](CO)[C@H](O)[C@H](O[C@@H]2O[C@H](CO)[C@H](O)[C@H](O)[C@H]2O)[C@H]1NC(C)=O [Galβ1,3GalNAcα-O—Al]
α1,2-L-FT activity: incorporation of radioactive sugar [5]: 36.8 CPM × 10^−3
α1,2-L-FT activity: incorporation of radioactive sugar [6]: 5.5 CPM × 10^−3

Structure (SMILES): CO[C@H]1O[C@H](CO)[C@H](O)[C@H](O[C@@H]2O[C@H](CO)[C@H](O)[C@H](O[C@@H]3O[C@H](CO)[C@H](O)[C@H](O)[C@H]3O)[C@H]2NC(C)=O)[C@H]1O [Galβ1,3GalNAcβ1,3Galα-O-Me]
α1,2-L-FT activity: incorporation of radioactive sugar [5]: 49.1 CPM × 10^−3
α1,2-L-FT activity: incorporation of radioactive sugar [6]: 13.7 CPM × 10^−3
